Assay results published in patent US9365851B2, “Spalt-like transcription factor 4 (SALL4) and uses thereof” (National University of Singapore, priority 2011, dated 2016).

Columns and labels:
KBM5 cells = assay: MTS cell viability assay; assay type: cell-based; details: KBM5, wt peptide + PTEN inhibitor
Protocol: (§1) Multiple leukemic and solid tumor cancer cell lines with high or low/no SALL4 expression (FIG. 10A) were chosen to test the biological effect(s) of the wild type peptide. Wild type or scrambled peptide was delivered into tumor cells at various concentrations, and their effects on cells were evaluated 72 hours post-treatment by the MTS cell viability assay. […] The effect of wild type peptide is SALL4-specific, as it had no effect on KBM5, an AML cell line with undetectable endogenous SALL4 expression. We were surprised to see that the wild type peptide had no effect on a high SALL4-expressing endometrioid cancer cell line, AN3CA. This prompted checking whether PTEN, a gene repressed by SALL4 through its interaction with NuRD 27, was present in this cell line. According to the model herein, the function of wild type peptide requires both the expression of SALL4 and intact SALL4 downstream target genes, such as PTEN. In tumor cells with PTEN deletion, even though wild type peptide could compete with endogenous SALL4 in interacting with the HDAC complex, an anti-proliferative effect might not be observed. Therefore, expression of PTEN was evaluated in AN3CA cells along with other cell lines. While PTEN protein was present in all the other cell lines, it was absent in AN3CA cells (FIG. 10C), with reported deletion mutation of the gene in this cell line 40,41. […] Furthermore, the anti-proliferative effect also required certain downstream targets, such as PTEN.
(§2) To further test whether the effect of wild type peptide on tumor cells is related to PTEN, a PTEN inhibitor (SF1670) was used (Li et al., Blood, 117:6702-6713). […] As a control for the specificity of SALL4, KBM5, a non-SALL4-expressing cell line was also treated with PTEN inhibitor.

THP1 cells = assay: MTS cell viability assay; assay type: cell-based; details: THP1, wt peptide + PTEN inhibitor
Protocol: as §1, §2

SNU-387 cells = assay: Cell viability assay (MTT/MTS); assay type: cell-based, human; details: SNU-387, wt peptide + PTEN inhibitor
Protocol: (§3) Cell viability was determined 72 hours after peptide treatments. Absorbance at 490 nm is directly correlated to cell viability. Wild type functional SALL4 peptide (wt), mutant non-functional SALL4 peptide (Mut.), trichostatin A (TSA), scrambled control peptide (Scr.), wild type peptide+PTEN inhibitor SF1670 (wt+Inh.) were given to the cells at the indicated concentration. PTEN inhibitor concentration was 400 nM. (31C, 31D) Western blot analyses of the effects of peptides on PTEN, AKT, and pAKT expression on SNU-398 (31C) and SNU-387 (31D) cells 72 hours following peptide treatments. 20 μM of wt or Scr. peptide or 100 nM of TSA was used. PTEN inhibitor concentration was 400 nM. (31E) Representative images show NOD/SCID mice transplanted with Scr peptide- and wt peptide-treated SNU-398 cells (left) and the dissected subcutaneous tumors (right). Arrow indicates subcutaneous tumor. (31F) Growth curve of subcutaneous tumors (left panel) and tumor weight of tumors dissected at day 26 post-transplantation (right panel). Results are mean±s.d. n=5; * P<0.05. (31G) Representative images show NOD/SCID mice transplanted with 3 million SNU-398 cells at the left flank and treated intraperitoneally for five consecutive days with 56 mg/kg body weight TAT-Mut. peptide or 60 mg/kg body weight wt peptide (top panel) and the dissected subcutaneous tumors (bottom). (31H) Tumor weight of tumors dissected at day 18 post-transplantation and post-treatment of mice treated intraperitoneally with TAT fusion peptides as described in 5 g. Results are mean±s.d. n=5; * P<0.05.
(§4) Cell viability assay (MTT) (Invitrogen) was performed according to the manufacturer's instructions. Briefly—10000 cells were seeded in 100 ul medium in 96 well plates. The next day cells were treated as indicated on the figures. At the designated time after the treatment 20 ul of 5 mg/ml MTT solution was added to each well. After 3.5 h incubation at 37 C the medium was removed and the reaction was terminated with a solution of 4 mM HCl, 0.1% Nondet P-40 (NP40) all in isopropanol in dark on orbital shaker for […]. at room temperature. The absorbance was read at 590 nm with a reference filter of 620 nm in Spectromax M3 (ABI) spectrophotometer.
7000 cells were seeded in each wells of a microtiter plate in 100 μL of complete medium. Cells from each treatment were seeded in duplicate. Controls using the same medium without cells were set up in parallel. At various time points, 317 μg/mL of 3-(4,5-dimethylthiazol-2-yl)-5-(3-carboxymethoxyphenyl)-2-(4-sulfophenyl)-2H-tetrazolium (CellTiter96® AQueous One Solution Cell Proliferation Assay, Promega) was added to each well. After four hours incubation of the tetrazolium salt, absorbance at 490 nm was read by a microplate reader.

SNU-398 cells = assay: Cell viability assay (MTT/MTS); assay type: cell-based, human; details: for cell viability on co-treatment with wt peptide (rescue): SNU-398, wt peptide + PTEN inhibitor
Protocol: as §3, §4, §1
7000 cells were seeded in each wells of a microtiter plate in 100 μL of complete medium. Cells from each treatment were seeded in duplicate. Controls using the same medium without cells were set up in parallel. […]

PTEN/AKT pathway = PTEN/AKT pathway expression in SNU-398 cells after treatment (Western blot, mRNA); assay type: cell-based, human; details: SNU-398
Excerpt: The induction of Pten expression was not affected when wt peptide was administrated together with a Pten inhibitor. AKT, a molecule with levels of phosphorylation controlled by the expression of Pten was affected by the wt peptide addition accordingly. […] The effect of wt peptide on pAKT was abrogated by the Pten inhibitor. […] In contrast, the protein expression level of endogenous Pten was very high in the none-SALL4 expressing SNU387 cells.
Then tested was whether this peptide could reverse the repressive effect of SALL4 on its target genes. The focus was onPTEN, since it is implicated in SALL4-mediated leukemogenesis (Yang et al., Blood, 112:805-813 (2008); Lu et al., PLoS One, 4:e5577 (2009)). In addition, it was previously reported that SALL4 could specifically bind to the PTEN promoter region in a chromatin immunoprecipitation (ChIP) assay (Lu et al., PLoS One, 4:e5577 (2009)). When SALL4 was overexpressed in 293T cells, an enrichment of SALL4 as well as decreased H3 acetylation at this binding site was observed, which correlated with decreased PTEN RNA expression (Lu et al., PLoS One, 4:e5577 (2009))). Therefore, it was hypothesized that SALL4 could recruit the HDAC/NuRD complex to repress PTEN, and that the wild type peptide would compete with endogenous SALL4 in recruiting the HDAC/NuRD complex to the PTEN promoter, and release the repression effect of SALL4 on PTEN. Furthermore, this model would predict that wild type peptide treatment of SALL4-expressing cells would lead to increased epigenetic markers of gene activation, such as H3 acetylation, at the PTEN promoter binding site, as well as an increase in PTEN expression. To test this possibility, SNU-398 cells were treated with scrambled or wild type peptide and subsequently evaluated for PTEN expression and H3 acetylation at the SALL4 binding site at the PTEN promoter region. […] Therefore, the results herein are compatible with the model that SALL4 recruits HDACs to repress PTEN expression, and blocking the SALL4-HDAC interaction with the wild type peptide results in increased expression of PTEN.
To confirm the involvement of PTEN tumor suppressor in SALL4 peptide-induced reduction of number of viable HCC cells, PTEN expression was analyzed by western blot upon drug treatment. […] Whether the increase in PTEN expression upon SALL4 peptide treatment has an effect in PI3K signalling by dephosphorylating AKT was examined.
To confirm the involvement of the PTEN tumor suppressor in the SALL4 peptide-induced reduction of HCC cell viability, PTEN expression was analyzed by western blot upon drug treatment. […] If the increase in PTEN expression has an effect in PI3K signaling was next examined. PTEN functions as a phosphatase to dephosphorylate AKT.

HDAC complex = molecular target: T1, HDAC complex (Homo sapiens, UniProt Q09028); assay: Fluorescent polarization competitive binding in SNU-398 nuclear extracts; details: Example 6
T1 construct: endogenous in cells; host or cells: SNU-398 nuclear extract
T1 sequence (Q09028 whole entry, one chain of several): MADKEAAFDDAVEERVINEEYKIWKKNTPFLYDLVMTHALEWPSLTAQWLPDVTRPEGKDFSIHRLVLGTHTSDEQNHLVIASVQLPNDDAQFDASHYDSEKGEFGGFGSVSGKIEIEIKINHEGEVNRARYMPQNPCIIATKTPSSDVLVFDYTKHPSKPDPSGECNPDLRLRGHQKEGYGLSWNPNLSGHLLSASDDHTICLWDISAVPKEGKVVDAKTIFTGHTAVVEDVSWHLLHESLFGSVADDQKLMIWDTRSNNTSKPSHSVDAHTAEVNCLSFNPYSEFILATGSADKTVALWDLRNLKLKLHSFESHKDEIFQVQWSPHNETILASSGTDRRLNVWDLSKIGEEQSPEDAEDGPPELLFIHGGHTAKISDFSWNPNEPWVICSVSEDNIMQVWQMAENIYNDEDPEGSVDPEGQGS
Protocol: Below are the amino acid sequences of the peptides used in this study. In the mutant peptide (mut), Lys 5 is replaced with an alanine residue. […] In the first lane marked “Input”, 10% of the extracts were subjected to western blot analysis without immunoprecipitation. […] Extracts were subsequently immunoprecipitated with anti-FITC antibody and the complexes pulled down were subjected to an HDAC activity assay as described in the methods. TSA was added at a concentration of 100 nM. Input is the sample in which 10% of the extract was assayed for HDAC activity without the immunoprecipitation step. […] Competitive binding of nonlabeled wild type or scrambled peptides was measured by fluorescent polarization. […] The fluorescent polarization (y axis) is decreased if the FITC-labeled peptide is displaced from a larger complex.
Next tested was the binding affinity of the wild type and scrambled peptides to the HDAC complex. For this, Fluorescent Polarization (FP), a technology based on molecular movement and rotation in which fluorescent molecules are excited with polarized light, was used. If the fluorescent molecules are part of a large complex, they rotate less and the emitted light has high polarity. In contrast, smaller molecules rotate faster and have low polarity (“depolarized”). […] Using this approach, FITC-labeled wild type or scrambled peptides were first mixed with nuclear extracts from SNU-398 cells. Serial dilutions of unlabeled wild type or scrambled peptides were then added as competitors respectively, and measured by FP assay.

Q: How did the “cell viability on co-treatment with wt peptide” value (KBM5 cells) turn out when `CC(C)(C)C(=O)Nc1ccc2c(c1)C(=O)C(=O)c1ccccc1-2` [SF1670, reference compound] was run?
A: showed no effect as well

Q: What about the “cell viability on co-treatment with wt peptide (rescue)” value (from here on “cell viability … (rescue)”) (THP1 cells) of the same compound?
A: restored the cell viability to the baseline levels

Q: What about the “cell viability on co-treatment with wt peptide” value (SNU-387 cells) of the same compound?
A: showed no effect as well

Q: And the “cell viability … (rescue)” value (SNU-398 cells)?
A: able to rescue the phenotype

Q: What about the “cell viability … (rescue)” value (SNU-398 cells; listed as PTEN inhibitor) of the same compound?
A: able to rescue the phenotypes

Q: What about the “cell viability … (rescue)” value (SNU-398 cells; listed as SF-1670) of the same compound?
A: restored the cell viability to a baseline level

Q: And the “effect of wt peptide on pAKT on co-treatment with PTEN inhibitor” value (PTEN/AKT pathway; listed as PTEN inhibitor)?
A: can be rescued

Q: What about the “effect of wt peptide on pAKT on co-treatment with PTEN inhibitor” value (PTEN/AKT pathway; listed as Pten inhibitor) of the same compound?
A: abrogated

Q: Which “binding affinity by FP” value (HDAC complex) does the source give for “NH2-YGRKKRRQRRR-MSAAAQAKPHI-COOH (H-YGRKKRRQRRRMSAAAQAKPHI-OH) [TAT-Mut, reference compound]” here?
A: minimal binding

Q: And the “cell viability / number of viable cells” value (SNU-398 cells; SNU-398 (high SALL4), 72 h)?
A: did not exhibit such cell killing effect
